In one test the target is T1, Caspase-3 (Homo sapiens, UniProt P42574).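 Further: Dose-response selectivity test against caspase-3 for candidate inhibitors of sentrin-specific proteases (SENPs).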
T1 sequence (P42574 whole entry): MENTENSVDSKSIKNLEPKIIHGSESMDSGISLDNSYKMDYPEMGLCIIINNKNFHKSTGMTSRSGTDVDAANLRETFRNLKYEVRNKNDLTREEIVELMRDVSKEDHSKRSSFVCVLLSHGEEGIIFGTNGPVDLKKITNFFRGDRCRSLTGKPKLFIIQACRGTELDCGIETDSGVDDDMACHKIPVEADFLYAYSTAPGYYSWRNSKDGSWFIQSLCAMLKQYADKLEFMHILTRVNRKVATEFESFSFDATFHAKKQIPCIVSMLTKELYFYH
In kind it is functional.

For test [1], the target named is T2, Sentrin-specific protease 7 (Homo sapiens, UniProt Q9BQF6).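 Further: Luminescence-based dose-response confirmation of ultra-high-throughput screening hits, measuring inhibition of SENP7.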
T2 sequence (Q9BQF6 whole entry): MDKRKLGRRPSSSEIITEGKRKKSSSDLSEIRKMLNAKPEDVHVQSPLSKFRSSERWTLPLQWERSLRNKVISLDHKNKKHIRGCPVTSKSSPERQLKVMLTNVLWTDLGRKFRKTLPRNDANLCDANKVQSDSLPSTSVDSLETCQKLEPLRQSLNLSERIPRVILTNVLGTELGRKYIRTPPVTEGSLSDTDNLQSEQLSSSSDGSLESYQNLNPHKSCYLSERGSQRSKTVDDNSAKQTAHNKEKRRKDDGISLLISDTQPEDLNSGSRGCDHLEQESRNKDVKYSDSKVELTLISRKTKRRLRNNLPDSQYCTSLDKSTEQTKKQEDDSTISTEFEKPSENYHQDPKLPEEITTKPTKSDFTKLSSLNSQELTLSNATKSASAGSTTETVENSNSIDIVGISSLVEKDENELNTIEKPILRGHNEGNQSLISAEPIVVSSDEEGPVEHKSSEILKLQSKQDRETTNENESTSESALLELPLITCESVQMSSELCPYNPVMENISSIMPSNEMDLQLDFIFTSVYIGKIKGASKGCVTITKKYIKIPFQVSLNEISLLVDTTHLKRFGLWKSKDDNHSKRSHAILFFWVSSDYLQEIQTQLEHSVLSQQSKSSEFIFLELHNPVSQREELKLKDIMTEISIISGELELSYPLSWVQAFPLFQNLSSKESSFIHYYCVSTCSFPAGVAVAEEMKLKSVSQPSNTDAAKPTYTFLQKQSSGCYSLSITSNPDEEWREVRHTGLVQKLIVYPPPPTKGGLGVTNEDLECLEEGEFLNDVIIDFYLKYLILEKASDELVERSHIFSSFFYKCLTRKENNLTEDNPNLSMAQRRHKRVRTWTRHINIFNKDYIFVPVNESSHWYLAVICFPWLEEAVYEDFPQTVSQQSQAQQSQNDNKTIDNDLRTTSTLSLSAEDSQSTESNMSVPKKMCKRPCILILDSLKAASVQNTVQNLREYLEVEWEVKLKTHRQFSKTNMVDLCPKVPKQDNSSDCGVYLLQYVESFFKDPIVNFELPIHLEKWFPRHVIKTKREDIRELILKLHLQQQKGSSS
It counts as functional.

Test [2] concerns the target T3, Sentrin-specific protease 8 (Homo sapiens, UniProt Q96LD8).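 Further: luminescence read-out of SENP8 inhibition, dose-response confirmation following an ultra-high-throughput screen.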
T3 sequence (Q96LD8 whole entry): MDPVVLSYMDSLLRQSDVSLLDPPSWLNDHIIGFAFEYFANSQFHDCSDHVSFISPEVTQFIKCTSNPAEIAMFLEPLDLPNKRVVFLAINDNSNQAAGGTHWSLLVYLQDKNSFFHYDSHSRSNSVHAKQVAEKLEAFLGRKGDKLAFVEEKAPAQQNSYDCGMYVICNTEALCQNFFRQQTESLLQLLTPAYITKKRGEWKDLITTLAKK
In kind it is functional.

In test [3] the target is T4, Sentrin-specific protease 6 (Homo sapiens, UniProt Q9GZR1).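 Further: Luminescence-based dose-response confirmatory assay of SENP6 inhibition, following up an ultra-high-throughput screen.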
T4 sequence (Q9GZR1 whole entry): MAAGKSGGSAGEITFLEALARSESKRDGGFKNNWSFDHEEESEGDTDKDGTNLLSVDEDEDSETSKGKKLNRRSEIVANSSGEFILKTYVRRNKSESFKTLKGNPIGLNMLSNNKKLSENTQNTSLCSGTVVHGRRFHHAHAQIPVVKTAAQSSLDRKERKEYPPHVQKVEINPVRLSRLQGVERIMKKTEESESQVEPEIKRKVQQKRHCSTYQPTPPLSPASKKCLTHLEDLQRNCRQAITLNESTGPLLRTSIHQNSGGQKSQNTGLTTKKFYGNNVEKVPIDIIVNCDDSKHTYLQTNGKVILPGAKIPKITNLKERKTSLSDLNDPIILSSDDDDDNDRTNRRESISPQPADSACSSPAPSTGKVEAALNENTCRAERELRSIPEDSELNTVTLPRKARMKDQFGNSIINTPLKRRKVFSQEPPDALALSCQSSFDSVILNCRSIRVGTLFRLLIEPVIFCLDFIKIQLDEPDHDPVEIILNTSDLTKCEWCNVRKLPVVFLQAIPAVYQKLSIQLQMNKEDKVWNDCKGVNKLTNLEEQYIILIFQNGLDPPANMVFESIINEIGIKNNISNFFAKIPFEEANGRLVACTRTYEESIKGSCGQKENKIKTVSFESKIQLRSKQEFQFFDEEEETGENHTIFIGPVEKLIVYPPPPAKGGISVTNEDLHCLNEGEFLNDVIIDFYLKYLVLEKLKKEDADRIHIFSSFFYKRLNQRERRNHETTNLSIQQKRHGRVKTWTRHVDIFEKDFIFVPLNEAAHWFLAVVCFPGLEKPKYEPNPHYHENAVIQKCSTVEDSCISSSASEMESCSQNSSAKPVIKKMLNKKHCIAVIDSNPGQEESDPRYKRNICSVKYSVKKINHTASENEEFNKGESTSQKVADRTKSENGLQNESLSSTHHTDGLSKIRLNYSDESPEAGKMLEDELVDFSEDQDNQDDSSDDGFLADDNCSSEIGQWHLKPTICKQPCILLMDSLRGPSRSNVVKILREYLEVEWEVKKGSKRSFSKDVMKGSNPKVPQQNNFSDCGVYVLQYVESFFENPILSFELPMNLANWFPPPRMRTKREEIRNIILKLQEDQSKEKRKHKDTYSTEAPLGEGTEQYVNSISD
In kind it is functional.

A short description of test [4]: NIH3T3 cell viability loss – ATP luminescence, mouse fibroblasts, counter-screen, dose response (AID 2010).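 Further: cells exposed to compound for about 90 hours before reading.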 In kind it is functional, cell-based.
A further test has as its target Nonstructural protein 1 (Influenza A virus, UniProt Q194T2). In kind it is functional, Influenza A virus (A/California/07/2009(H1N1)).
Test [5] in a line: Trypanosoma cruzi growth suppression in host cells – NIH3T3 host cells, beta-gal luminescence, confirmation (AID 2044).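 Further: intracellular parasites grown in NIH/3T3 mouse fibroblasts as host cells; luminescent beta-galactosidase reporter signal from transgenic T. cruzi replicating inside host cells; inhibitors lower the luminescence signal.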 It counts as functional, cell-based.
The target of another test is T5, Estrogen receptor (Homo sapiens, UniProt P03372).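 Further: potency for inhibiting coactivator peptide recruitment to the receptor.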
T5 sequence (P03372 whole entry): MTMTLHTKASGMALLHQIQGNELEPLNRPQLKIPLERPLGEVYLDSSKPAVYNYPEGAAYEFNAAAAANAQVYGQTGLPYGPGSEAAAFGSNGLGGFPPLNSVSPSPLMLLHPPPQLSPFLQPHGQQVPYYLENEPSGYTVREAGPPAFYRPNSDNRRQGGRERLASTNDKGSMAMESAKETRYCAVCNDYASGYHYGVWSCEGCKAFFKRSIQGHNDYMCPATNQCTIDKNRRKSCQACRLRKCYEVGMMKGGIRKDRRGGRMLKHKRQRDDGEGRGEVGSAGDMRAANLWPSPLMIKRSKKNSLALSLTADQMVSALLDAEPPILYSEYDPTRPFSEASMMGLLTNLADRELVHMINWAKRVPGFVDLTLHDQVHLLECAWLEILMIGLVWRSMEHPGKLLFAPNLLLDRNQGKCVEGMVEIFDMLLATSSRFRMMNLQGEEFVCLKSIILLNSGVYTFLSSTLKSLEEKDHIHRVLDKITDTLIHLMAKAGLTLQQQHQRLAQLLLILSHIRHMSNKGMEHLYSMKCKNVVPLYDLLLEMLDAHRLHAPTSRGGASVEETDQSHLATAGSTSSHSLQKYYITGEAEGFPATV

A short description of test [6]: Luminescence Cell-Based Dose Response HTS to Identify Activators of Luciferase Translation or Activity in H4 […] Cells. [Related pubchem assays: 1829 (Project Summary), 1814 (Primary HTS)]. In kind it is functional.
Another test concerns H4. Kind of test: Luminescence Cell-Based Dose Response HTS to Identify Activators of 5'UTR Stem-Loop Driven Prion Protein mRNA Translation in H4 Neuroglioblastoma Cells. [Related pubchem assays: 1829 (Project Summary), 1814 (Primary HTS)]. It counts as functional. Conditions: Homo sapiens.
Test [7] is described as follows: Luminescence Cell-Based Dose Confirmation HTS to Identify Activators of 5'UTR Stem-Loop Driven Alpha-Synuclein mRNA Translation in H4 Neuroglioblastoma Cells. [Related pubchem assays: 1829 (Project Summary), 1814 (Primary HTS)]. In kind it is functional.
The subject of test [8] is HEK293. Kind of test: cells. It counts as functional, cell-based. Conditions: Homo sapiens.
For test [9], the system named is HEK293. In words: cells. It counts as functional, cell-based. To be noted: Homo sapiens. This is another data set of the same source.
Test [10] relates to HEK293. Kind of test: inhibition of NOD1-driven NF-kB reporter – cell-based, luminescence, uHTS, primary screen (AID 1578). It counts as functional. Conditions: Homo sapiens.
Test [11] relates to HEK293. Kind of test: NOD2 signaling inhibitors in MDP-stimulated cells, cell-based, uHTS, luminescence (AID 2001). Conditions: Homo sapiens. It counts as functional.
The nature of test [12]: Luminescence Cell-Based Dose Retest to Confirm Inhibitors of Cancer Stem Cells. [Related pubchem assays (depositor defined):AID2717, AID2721]. In kind it is functional. Conditions: Homo sapiens.

Activity calls are given as the source filed them.

One may read the IC50 as the concentration at which inhibition is half-maximal. Usually EC50 stands for the concentration at which the effect is half-maximal. Broadly, the AC50 is the concentration at which the activity in the assay is half-maximal.
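Wherever AC50 is given: cells exposed to compound for roughly 70 hours or longer before luminescence read.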

Chain of Nonstructural protein 1 (Q194T2 whole entry): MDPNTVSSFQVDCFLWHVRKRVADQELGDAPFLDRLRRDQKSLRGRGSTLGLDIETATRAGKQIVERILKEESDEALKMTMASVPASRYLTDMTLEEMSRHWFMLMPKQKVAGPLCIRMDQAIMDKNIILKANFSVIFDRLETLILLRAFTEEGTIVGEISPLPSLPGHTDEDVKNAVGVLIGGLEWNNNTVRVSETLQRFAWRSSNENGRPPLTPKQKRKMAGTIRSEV

As to `CCc1ccc(-c2csc(NC(=O)C3=COCCO3)n2)cc1`, the IC50 at Caspase-3 is 38.6 µM (active); in test [1] it was 6.81 µM (active); in test [2] it was 48.5 µM (active); in [3], 27 µM (active).

`O=C(Nc1ccccc1Cl)Nc1cccc2cccnc12`: the IC50 is 29.4 µM (active) on Caspase-3, 7.41 µM (active) in [1], 6.08 µM (active) in [2] and > 100 µM (inactive) in test [3].

`CC1CCN(c2c([N+](=O)[O-])nn(-c3ccc4c(c3)OCCO4)[n+]2[O-])CC1`: the concentration for a half-maximal effect (EC50) was > 60 µM (not active) in test [4] and 0.431 µM (active) in test [5]. Moreover, the IC50 on Nonstructural protein 1 was 58.9 µM (active).

As for `COc1ccccc1NC(=O)CSc1n[nH]c(-c2ccccn2)n1`, the IC50 on Nonstructural protein 1 was 6.84 µM (active).

`O=[N+]([O-])c1nn(-c2ccc3c(c2)OCCO3)[n+]([O-])c1NCc1ccccc1Cl`: the IC50 at Caspase-3 is > 100 µM (inactive); in test [1], 3.36 µM (active); in [2] it was > 100 µM (inactive); in test [3], > 100 µM (inactive).

Take `O=C(Cc1cccs1)Nc1nnc(COc2ccccc2)s1`: on Estrogen receptor, the IC50 is recorded as 37.3 µM (not active).

As for `Clc1ccc(OCc2nc(-c3ccncc3)no2)c(Cl)c1`, the IC50 is 38.8 µM (active) at Caspase-3, 9.12 µM (active) in test [1], 36.6 µM (active) in test [2] and 28.8 µM (active) in test [3].

`S=C(NNc1ccc2ccccc2c1)NC1CCCCC1`: the EC50 in test [6] is 30.4 µM (active); in the test on H4, 9.85 µM (active); in test [7], 42.1 µM (active). Besides, on Nonstructural protein 1, the IC50 was > 100 µM (active).

As to `CC(C)OC(=O)c1cc2c(ccn2C)n1CC(=O)N(Cc1ccccc1)c1ccc(F)cc1`, the IC50 on Nonstructural protein 1 was > 100 µM (active).

Turning to `Cc1cccc(C(=O)n2c(=S)nc3cc(C)ccn32)c1`, the IC50 on Caspase-3 was 87.3 µM (active); in [1], 11 µM (active); in [2], > 100 µM (inactive); in test [3], 86.4 µM (active).

As to `O=C(CSc1nc2cc(Cl)ccc2s1)NC(=O)NCc1ccco1`, the concentration for half-maximal inhibition (IC50) at Estrogen receptor is given as > 50 µM (not active).

As for `COc1ccc(-c2nc3ccccc3c(=O)[nH]2)cc1`, the half-maximal inhibitory concentration (IC50) on Caspase-3 is 6.83 µM (active); in [1], 6.89 µM (active); in test [2], > 100 µM (inactive); in test [3] it was 17.3 µM (active).

For `CC1(C)C=C2[C@H]3CC[C@@H]4[C@@]5(C)CCC(=O)C(C)(C)[C@@H]5CC[C@@]4(C)[C@]3(C)CC[C@@]2(C(=O)O)CC1` [MORONIC ACID], the IC50 with HEK293 [8] is 15.7 µM (active); in the test on HEK293 [9], 10.9 µM (active); in the test on HEK293 [11] it was 8.08 µM (active). Moreover, the EC50 in the test with HEK293 [10] was 2.27 µM (active). In addition, the AC50 in [12] is 3.35 µM (active).
